# What was measured:
# [1] = system: skin fibroblasts; conditions: SR reconstituted while eliminating individual supplements; cited from earlier work
# [2] = system: ES-like cells; conditions: bFGF (4 ng/ml) and Lif added together to SR-containing medium; cited from earlier work
# [3] = system: Mouse embryonic skin fibroblast (MEF) cells; assay: Conversion (reprogramming) of MEF cells into stem-like cells in defined medium; format: cell-based
# Protocol: MEF medium: DMEM (Invitrogen 11965-092) supplemented with 10% FBS (16000-044), 100 U/mL penicillin streptomycin (15140-122). Defined medium (Modified/Supplemented SR medium): 400 ml DMEM/F12 (Invitrogen 11330-032), 5 ml non-Essential Amino Acids (Invitrogen 11140-050), 2.5 ml L-Glutamine (Invitrogen 25030-018), 0.1 mM β-mercaptoethanol (Sigma 7522, add 3.5 μl) and 100 ml Knockout Serum Replacer (Invitrogen 10828-028). 4 ng/mL bFGF (13256-029), 1000/ml unit of ESGRO™ (Lif) (Chemicon Cat #ESG1107). For each experiment, the necessary amount of defined medium was aliquoted, and then freshly prepared bFGF and Lif were added to the medium each time just in advance of use. (Lif was used as a component of such medium for mouse cell culture only.) FGF stock was made by adding 1 ml of DMEM/F12 to a vial of 10 μg of FGF, with the 10 μg of FGF dissolved in the DMEM/F12 and then aliquoted into five vials. Stock vials were then stored at −20° C. For each 30 ml of defined medium, 12 μl of the stock bFGF was added. Arachidonic acid (AA) stock was made by dissolving 10 mg of AA (from porcine liver A3555-10M Sigma) in 1 ml of DMSO. Dissolved AA was then aliquoted into five vials, and then store at −20° C. ([…]). Before use in defined medium, the 10 mg/ml AA was diluted with 1×PBS at a 1:5 ratio. […]
# [4] = system: skin fibroblast cells; conditions: thapsigargin 1 μg/ml in SR-containing medium; cited from earlier work
# [5] = system: fibroblast growth factor receptor 3 (FGFR3); conditions: thapsigargin 1 μg/ml in SR-containing medium; cited from earlier work
molecule,measurement,setting,value
"lipid-rich BSA: lipid-rich BSA (AlbuMax I, Invitrogen), component of serum replacement","role of SR component in reprogramming somatic cells (e.g., fibroblasts) into stem-like cells",[1],critical components
bFGF: basic fibroblast growth factor,differentiation of the ES-like cells,[2],preventing differentiation
same,division of the ES-like cells,[2],promote division
same,efficient reprogramming of MEF cells to stem-like cells,"[3]; freshly prepared, bFGF 4 ng/mL and Lif 1000/ml unit added to defined medium immediately prior to every conversion or passage",important to ensuring efficient reprogramming
C/C=C(/C)C(=O)O[C@H]1C(C)=C2[C@H]([C@@H]1OC(=O)CCCCCCC)[C@@](C)(OC(C)=O)C[C@H](OC(=O)CCC)[C@@]1(O)[C@H]2OC(=O)[C@@]1(C)O [Thapsigargin],conversion of skin fibroblast cells into stem cell-like cells,[4],prevented
same,up-regulated expression of FGFR3,[5],prevented
"CCCCC/C=C\C/C=C\C/C=C\C/C=C\CCCC(=O)O [arachidonic acid, all-cis 5,8,11,14-eicosatetraenoic acid]","role of SR component in reprogramming somatic cells (e.g., fibroblasts) into stem-like cells",[1],critical components
same,conversion efficiency of somatic cells,"[3]; arachidonic acid 2 mg/L added to defined medium, in isolation or together with pluronic F68",increase the conversion efficiency
